Reference: patent US5972678A, “Animal 2-5A dependent RNases” (Cleveland Clinic Foundation, priority 1995, dated 1999)
Residue numbers refer to the chain shown, from its start.

Experiments:
[1] = test system: human 2-5A-dependent RNase (recombinant and HeLa cell enzyme); test: UV covalent crosslinking of 2-5A probe with unlabeled competitors, human enzyme; type: binding; details: competitor 100 nM; recombinant human enzyme from wheat germ extract; same pattern with interferon-treated HeLa cell extract
Description: FIG. 5A is specific affinity of recombinant human 2-5A-dependent RNase for 2-5A. Crosslinking of the 2-5A probe (lanes 1-7) to protein is performed after translation reactions in wheat germ extract (5 μl) with human 2-5A-dependent RNase mRNA (lanes 1-3) or without added RNA (lane 4) or in extract of human interferon a treated (1000 units per ml for 16 h) human HeLa cells (350 μg of protein) (lanes 5-7). […] Incubations with ^35 S-methionine are shown in lanes 8 to 12. Lane 8 is with wheat germ extract and human 2-5A-dependent RNase mRNA. Reticulocyte lysate preadsorbed to 2-5A-cellulose is incubated with human 2-5A-dependent RNase MRNA in the absence (lane 9) or presence (lane 10) of cycloheximide, or in the absence of added mRNA (lane 11). […] The positions and relative molecular masses (in kDa) of the marker proteins are indicated.
The 2-5A binding properties of the recombinant and naturally occurring forms of human 2-5A-dependent RNase are compared by uv covalent crosslinking to the 2-5A probe. […] Radiolabeling of the cloned human 2-5A-dependent RNase with the 2-5A probe is not prevented by (A2'p)2 A. See FIG. 5A, lanes 1 and 2. […] See lane 3. The same pattern of 2-5A binding activity is obtained with 2-5A-dependent RNase in an extract of interferon-treated human HeLa cells. […]

[2] = test system: murine 2-5A-dependent RNase (truncated recombinant clone ZB1 and murine L cell enzyme); test: UV covalent crosslinking of 32P-2-5A probe with unlabeled oligonucleotide competitors, murine enzyme; type: binding; details: for concentration that prevents 2-5A probe binding: 32P-2-5A probe 2.4 nM, both recombinant (ZB1) and naturally occurring murine protein; for competition with 2-5A probe binding: competitor 100 nM, recombinant 74 kDa protein (clone ZB1) from wheat germ extract, similar profile with murine L929 cell enzyme
Description: FIG. 2A is a specific affinity of truncated murine 2-5A-dependent RNase for 2-5A. UV covalent crosslinking of the ^32 P-2-5A probe (lanes 1-7) to protein is performed after translation reactions in wheat germ extract (5 μl) with murine 2-5A-dependent RNase mRNA (from clone ZB1) (lanes 1-3) or without added RNA (lane 4) or in extract of interferon treated mouse L cells (100 μg of protein) (lanes 5-7). Reactions are without added competitor (lanes 1, 4, and 5) or in the presence of either trimer core. […] Lanes 8 and 9 are produced by incubating the wheat germ extract with ^35 S-methionine in the absence or presence of 2-5A-dependent RNase mRNA, respectively.
Autoradiograms of the dried SDS/10% polyacrylamide gels are shown. Concentrations of the oligonucleotide competitors are indicated. I is inosine.
To obtain recombinant protein for characterization, the cDNA is transcribed and translated in cell-free systems. See Example. 2-5A binding activity is then determined by covalently crosslinking the 2-5A probe to the protein with uv light, for example, Nolan-Sorden, N. L. et al., Anal. Biochem., 184: 298-304 (1990). […] See FIG. 2A, lanes 2 and 3, respectively. There is no detectable 2-5A binding proteins in the wheat germ extract as shown in the incubation without added RNA, FIG. 2A, lane 4. For comparison, a similar profile of 2-5A binding activity is obtained for the 80 kDa 2-5A-dependentRNase from murine L929 cells, incubated without added oligonucleotide or with (A2'p)2 A or p3 (A2'p)2 A as competitors. In a further comparison, covalent linkage of the 2-5A probe to the about 74 kDa protein and to murine L929 cell 2-5A-dependent RNase followed by partial digestion with chymotrypsin produces an identical pattern of six labeled peptides. Similarly, partial digestion of the two labeled proteins with S. aureus V8 protease also produces identical patterns of labeled cleavage products.
The 2-5A binding functions of the recombinant and naturally occurring forms of murine 2-5A-dependent RNase are characterized by covalent crosslinking to the 2-5A probe in the presence of unlabeled 2-5A or 2-5A analogues as competitors. […] In comparison, a 500-fold higher concentration of (A2'p)2 A (10 μM) is required to prevent probe binding to both proteins. See lane 13. The dimer species, p3 A2'pA, is unable to prevent the 2-5A probe from binding to the proteins even at a concentration of 10 μM (lane 18). However, the inosine analogue, p3 I2'pA2'pA, Imai, J. et al., J. Biol. Chem., 260: 1390-1393 (1985), is able to prevent probe binding to both proteins but only when added at a concentration of about 1.0 μM (lane 22).
The synthesis of the 2-5A probe, p(A2'p)2 (br^8 A2'p)2 A[32P]Cp, and its crosslinking to 2-5A-dependent RNase is performed exactly as described. See Nolan-Sorden, N. L. et al., Anal. Biochem., 184: 298-304 (1990). Briefly, the 2-5A probe, about 0.7 to 2.5 nM at […], is incubated for about one hour on ice with cell extract prepared as described, Silverman, R. H. and Krause, D., Lymphokines and Interferons: A Practical Approach, I.R.L. Press, Oxford. England, pp. 149-193 (1987), in the absence or presence of unlabeled oligonucleotide competitors. Covalent crosslinking is done under a uv lamp (308 nm) for one hour on ice and the proteins are separated on SDS/10% polyacrylamide gels. Filter assays for 2-5A binding activity using the 2-5A probe for about one hour on ice, as described in Knight, M. et al., Nature, 288: 189-192 (1980).

2-5A probe = test: 2-5A binding activity of nested 3'-deletion mutants, filter binding assay and uv crosslinking assay; details: protein expressed in wheat germ extract
From the text: See Example and Knight et al. 1980). The positions of the P-loop motifs and the lengths of the translation products are indicated. Clone ZB1 encodes for amino acids designated as 1-656 in Table II, except for the last 5 amino acid residues which are Lys, Pro, Leu, Ser, and Gly. Clone ZB2 encodes for amino acids designated as 1-619 in Table II. Clone ZB3 encodes for amino acids designated as 1-515 in Table II. Clone ZB5 encodes for amino acids designated as 1-474 in Table II. Clone ZB9 encodes for amino acids designated as 1-403 in Table II. Clone ZB10 encodes for amino acids designated as 1-365 in Table II. Clone ZB13 encodes for amino acids designated as 1-294 in Table II. Clone ZB14 encodes for amino acids designated as 1-265 in Table II. Clone ZB15 encodes for amino acids designated as 1-218 in Table II.
To further define sequences involved in 2-5A binding, nested 3'-deletions of the murine 2-5A-dependent RNase cDNA, clone ZB1, are constructed, transcribed in vitro, and expressed in a wheat germ extract. […] The levels of 2-5A binding activity are determined with the 2-5A probe in both a filter binding assay, Knight, M. et al., Nature, 288: 189-192 (1980), and the uv crosslinking assay, Nolan-Sorden, N. L. et al., Anal. Biochem., 184: 298-304 (1990), with similar results. […]

[3] = test system: 2-5A probe, Br-2-5A-[32P]pCp; type: binding

(A2'p)2 A was tested, and the “competition with 2-5A probe binding” value [1] was “not prevented”, the “concentration that prevents 2-5A probe binding” value [2] was 10 µM and the “competition with 2-5A probe binding” value [2] was “fails to interfere with binding of the protein to the 2-5A probe”.

With p3 I2'pA2'pA the “concentration that prevents 2-5A probe binding” value [2] was “about 1.0 μM”.

In the case of p3 A2'pA, the “concentration that prevents 2-5A probe binding” value [2] is reported as over 10 µM.

p3 (A2'p)2 A was tested, and the “competition with 2-5A probe binding” value [1] was “effectively competes with the 2-5A probe”, the “concentration that prevents 2-5A probe binding” value [2] was “about 20 nM” and the “competition with 2-5A probe binding” value [2] was “completely prevents probe binding”.

B1: Clone ZB15: murine 2-5A-dependent RNase deletion mutant, amino acids 1 to 218, both P-loop motifs deleted (protein, UniProt Q05921 1-218, looked up, fragment)
chain: METPDYNTPQGGTPSAGSQRTVVEDDSSLIKAVQKGDVVRVQQLLEKGADANACEDTWGWTPLHNAVQAGRVDIVNLLLSHGADPHRRKKNGATPFIIAGIQGDVKLLEILLSCGADVNECDENGFTAFMEAAERGNAEALRFLFAKGANVNLRRQTTKDKRRLKQGGATALMSAAEKGHLEVLRILLNDMKAEVDARDNMGRNALIRTLLNWDCENV
In the case of B1, the “2-5A binding activity (in words)” value (2-5A probe) is reported as “completely lacking in 2-5A binding activity”.

B2: Clone ZB1: truncated recombinant murine 2-5A-dependent RNase, amino acids 1-656 in Table II (protein, UniProt Q05921 1-656, looked up, fragment)
chain: METPDYNTPQGGTPSAGSQRTVVEDDSSLIKAVQKGDVVRVQQLLEKGADANACEDTWGWTPLHNAVQAGRVDIVNLLLSHGADPHRRKKNGATPFIIAGIQGDVKLLEILLSCGADVNECDENGFTAFMEAAERGNAEALRFLFAKGANVNLRRQTTKDKRRLKQGGATALMSAAEKGHLEVLRILLNDMKAEVDARDNMGRNALIRTLLNWDCENVEEITSILIQHGADVNVRGERGKTPLIAAVERKHTGLVQMLLSREGINIDARDNEGKTALLIAVDKQLKEIVQLLLEKGADKCDDLVWIARRNHDYHLVKLLLPYVANPDTDPPAGDWSPHSSRWGTALKSLHSMTRPMIGKLKIFIHDDYKIAGTSEGAVYLGIYDNREVAVKVFRENSPRGCKEVSCLRDCGDHSNLVAFYGREDDKGCLYVCVSLCEWTLEEFLRLPREEPVENGEDKFAHSILLSIFEGVQKLHLHGYSHQDLQPQNILIDSKKAVRLADFDQSIRWMGESQMVRRDLEDLGRLVLYVVMKGEIPFETLKTQNDEVLLTMSPDEETKDLIHCLFSPGENVKNCLVDLLGHPFFWTWENRYRTLRNVGNESDIKVRKCKSDLLRLLQHQTLEPPRSFDQWTSKIDKNVMDEMNHFYEKRKKNPYQD
B2 was tested, and the “2-5A binding activity compared with naturally occurring enzyme (in words)” value ([3]; uv crosslinking to 2-5A probe with competitors, protein missing about 84 carboxy-terminal amino acids) was “indistinguishable from that of naturally occurring 2-5A-dependentRNase”.

B3: Clone ZB1 (Lys^240,274 →Asn): double mutant of clone ZB1, lysines 240 and 274 replaced with asparagine (protein, UniProt Q05921 1-656, looked up, variant K240N K274N)
chain: B2 chain with K240N, K274N
B3 was tested, and the “2-5A binding activity, % of the activity of clone ZB1” value ([3]; uv crosslinking, phosphorimager analysis of dried gel, wheat germ extract translation products) was 12.2%.
